In patent publication US10874743B2, “IRAK degraders and uses thereof” (Kymera Therapeutics, Inc., priority 2017, dated 2020):
pEC50: −log10 of the molar value.

Legend:
IRAK4 = target: T1, IRAK4 (Homo sapiens, UniProt Q9NWZ3); assay: OCI-LY-10 MSD assay for IRAK4 DC50; type: cell-based; set-up: endogenous in cells; host or cells: OCI-LY10; details: OCI-LY10 cells, 4 hr incubation, concentration required to degrade 50% of protein
T1 sequence (Q9NWZ3 1-460): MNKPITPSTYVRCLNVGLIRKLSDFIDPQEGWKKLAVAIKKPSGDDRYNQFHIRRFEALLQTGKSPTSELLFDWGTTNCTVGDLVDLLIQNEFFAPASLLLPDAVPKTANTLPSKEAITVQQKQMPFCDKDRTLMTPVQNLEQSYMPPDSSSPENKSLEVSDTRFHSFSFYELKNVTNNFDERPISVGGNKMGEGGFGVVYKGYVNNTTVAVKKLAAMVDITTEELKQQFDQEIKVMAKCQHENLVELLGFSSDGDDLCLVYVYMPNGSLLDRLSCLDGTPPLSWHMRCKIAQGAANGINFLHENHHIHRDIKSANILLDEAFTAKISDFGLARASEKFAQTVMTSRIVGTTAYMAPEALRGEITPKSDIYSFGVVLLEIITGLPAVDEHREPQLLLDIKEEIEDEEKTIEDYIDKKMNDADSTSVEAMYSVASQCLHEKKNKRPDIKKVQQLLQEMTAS
How it was run: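 OCI-Ly10 cells were exposed to compound for 4 hr across a 3-fold, 8-point dilution series. Lysates were made in RIPA buffer, and IRAK4 remaining was measured by MSD sandwich immunoassay with anti-IRAK4 capture and detection antibodies. DC50 was taken from a four-parameter logistic fit.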

OCI-LY10 cells = assay: OCI-LY-10 CTG cell viability assay (EC50); type: cell-based; details: Homo sapiens, 96 h, CellTiter-Glo cell viability, 4 days incubation, top concentration 10 μM, read-out: OCI-LY10 IRAK4 EC50
How it was run: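 OCI-LY10 cells were exposed to a 9-dose, 1:3 series (top 10 μM, 0.2% DMSO) for 4 days at 37 °C. Viability was measured by CellTiter-Glo luminescence, and EC50 came from a three-parameter logistic fit.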

| Compound | DC50 (IRAK4) | pEC50 (OCI-LY10 cells) |
| --- | --- | --- |
| CN(C[C@H]1CN(CCCc2ccc3c(c2)n(C)c(=O)n3C2CCC(=O)NC2=O)CCO1)C(=O)c1ccc(-n2cc(NC(=O)c3coc(-c4ccnc(NCC(F)(F)F)c4)n3)c(C(F)F)n2)cc1 (stereo partly shown) [I-487] | < 50 nM | 7.00 to 7.30 |
| CN(C[C@@H]1CN(CCCc2ccc3c(c2)n(C)c(=O)n3C2CCC(=O)NC2=O)CCO1)C(=O)c1ccc(-n2cc(NC(=O)c3coc(-c4ccnc(NCC5CC5)c4)n3)c(C(F)F)n2)cc1 (stereo partly shown) [I-488] | < 50 nM | > 7.30 |
| CN(CCCCOCCCCc1ccc2c(c1)n(C)c(=O)n2C1CCC(=O)NC1=O)C(=O)c1ccc(-n2cc(NC(=O)c3coc(-c4ccnc(NCC(F)(F)F)c4)n3)c(C(N)=O)n2)cc1 (stereo not shown) [I-489] | < 50 nM | 6.00 to 6.30 |
| CN(C[C@H]1CN(CCCc2ccc3c(c2)n(C)c(=O)n3C2CCC(=O)NC2=O)CCO1)C(=O)c1ccc(-n2cc(NC(=O)c3coc(-c4ccnc(NCC5CC5)c4)n3)c(C(F)F)n2)cc1 (stereo partly shown) [I-490] | < 50 nM | > 7.30 |
| CN(CCCCOCCCCc1ccc2c(c1)n(C)c(=O)n2C1CCC(=O)NC1=O)C(=O)c1ccc(-n2cc(NC(=O)c3coc(-c4ccnc(NCC5CC5)c4)n3)c(C(F)F)n2)cc1 (stereo not shown) [I-491] | 50 to 100 nM | > 7.30 |
| CN(CCCOCCCc1cccc2c1oc(=O)n2C1CCC(=O)NC1=O)C(=O)c1ccc(-n2cc(NC(=O)c3coc(-c4ccnc(NCC(F)(F)F)c4)n3)c(C(N)=O)n2)cc1 (stereo not shown) [I-495] | < 50 nM | 6.00 to 6.30 |
| CN(CC1CCN(CCC#Cc2ccc3c(c2)n(C)c(=O)n3C2CCC(=O)NC2=O)CC1)C(=O)c1ccc(-n2cc(NC(=O)c3coc(-c4ccnc(NCC5CC5)c4)n3)c(C(F)F)n2)cc1 (stereo not shown) [I-504] | < 50 nM | > 7.30 |
| Cn1c(=O)n(C2CCC(=O)NC2=O)c2ccc(CN3CCN(CCO[C@H]4C[C@H](NC(=O)c5ccc(-n6cc(NC(=O)c7coc(-c8ccnc(NCC9CC9)c8)n7)c(C(F)F)n6)cc5)C4)CC3)cc21 (stereo partly shown) [I-506] | < 50 nM | > 7.30 |
| O=C1CCC(N2C[C@H](c3cccc(C#CCN4CCO[C@@H](CNC(=O)c5ccc(-n6cc(NC(=O)c7coc(-c8ccnc(NCC9CC9)c8)n7)c(C(F)F)n6)cc5)C4)c3)OC2=O)C(=O)N1 (stereo partly shown) [I-508] | < 50 nM | 7.00 to 7.30 |
| O=C1CCC(N2C[C@H](c3ccc(C#CCN4CCO[C@@H](CNC(=O)c5ccc(-n6cc(NC(=O)c7coc(-c8ccnc(NCC9CC9)c8)n7)c(C(F)F)n6)cc5)C4)cc3)OC2=O)C(=O)N1 (stereo partly shown) [I-509] | < 50 nM | > 7.30 |
| CN(C[C@H]1CN(CCCc2cccc3c2n(C)c(=O)n3C2CCC(=O)NC2=O)CCO1)C(=O)c1ccc(-n2cc(NC(=O)c3coc(-c4ccnc(NCC5CC5)c4)n3)c(C(F)F)n2)cc1 (stereo partly shown) [I-513] | < 50 nM | > 7.30 |
| CN(C[C@@H]1CN(CCCc2cccc3c2n(C)c(=O)n3C2CCC(=O)NC2=O)CCO1)C(=O)c1ccc(-n2cc(NC(=O)c3coc(-c4ccnc(NCC5CC5)c4)n3)c(C(F)F)n2)cc1 (stereo partly shown) [I-514] | < 50 nM | > 7.30 |
| Cn1c(=O)n(C2CCC(=O)NC2=O)c2ccc(CCCOCCOC3CCN(C(=O)c4ccc(-n5cc(NC(=O)c6coc(-c7ccnc(NCC8CC8)c7)n6)c(C(F)F)n5)cc4)CC3)cc21 (stereo not shown) [I-517] | < 50 nM | < 6.00 |
| CN[C@@H](C)C(=O)N[C@H](C(=O)N1Cc2cc(OCCOCCOCCOCCOCCNC(=O)c3ccc(-n4cc(NC(=O)c5coc(-c6ccnc(NCC7CC7)c6)n5)c(C(F)F)n4)cc3)ccc2C[C@H]1C(=O)N[C@@H]1CCCc2ccccc21)C(C)(C)C [I-519, 2-[2-(Cyclopropylmethylamino)-4-pyridyl]-N-[3-(difluoromethyl)-1-[4-[2-[2-[2-[2-[2-[[(3S)-2-[(2S)-3,3-dimethyl-2-[[(2S)-2-(methylamino)propanoyl]amino]butanoyl]-3-[[(1R)-tetralin-1-yl]carbamoyl]-3,4-dihydro-1H-isoquinolin-7-yl]oxy]ethoxy]ethoxy]ethoxy]ethoxy]ethylcarbamoyl]phenyl]pyrazol-4-yl]oxazole-4-carboxamide] | 500 to 1000 nM | 6.00 to 6.30 |
| CN[C@@H](C)C(=O)N[C@H](C(=O)N1Cc2cc(OCCOCCOCCOCCOCCOCCNC(=O)c3ccc(-n4cc(NC(=O)c5coc(-c6ccnc(NCC7CC7)c6)n5)c(C(F)F)n4)cc3)ccc2C[C@H]1C(=O)N[C@@H]1CCCc2ccccc21)C(C)(C)C [I-520, 2-[2-(Cyclopropylmethylamino)-4-pyridyl]-N-[3-(difluoromethyl)-1-[4-[2-[2-[2-[2-[2-[2-[[(3S)-2-[(2S)-3,3-dimethyl-2-[[(2S)-2-(methylamino)propanoyl]amino]butanoyl]-3-[[(1R)-tetralin-1-yl]carbamoyl]-3,4-dihydro-1H-isoquinolin-7-yl]oxy]ethoxy]ethoxy]ethoxy]ethoxy]ethoxy]ethylcarbamoyl]phenyl]-pyrazol-4-yl]oxazole-4-carboxamide] | 500 to 1000 nM | < 6.00 |
| CN[C@@H](C)C(=O)N[C@H](C(=O)N1Cc2cc(OCCOCCOCCOCCNC(=O)c3ccc(-n4cc(NC(=O)c5coc(-c6ccnc(NCC7CC7)c6)n5)c(C(F)F)n4)cc3)ccc2C[C@H]1C(=O)N[C@@H]1CCCc2ccccc21)C(C)(C)C [I-521] | > 1000 nM | < 6.00 |
| Cn1cc(NC(=O)c2coc(-c3ccnc(NCC(F)(F)F)c3)n2)c(CNCCOCCOCCOCCOCCOCCNc2cccc3c2C(=O)N(C2CCC(=O)NC2=O)C3=O)n1 (stereo not shown) [I-522] | > 1000 nM | < 6.00 |
| Cn1c(=O)n(C2CCC(=O)NC2=O)c2cccc(CCCCOCCCCNCc3ccc(-n4cc(NC(=O)c5coc(-c6ccnc(NCC7CC7)c6)n5)c(C(F)F)n4)cc3)c21 (stereo not shown) [I-523] | 50 to 100 nM | > 7.30 |
| CN(CC(=O)N(C)CC(=O)N(C)CC(=O)N(C)CCCc1cccc2c1n(C)c(=O)n2C1CCC(=O)NC1=O)Cc1nn(C)cc1NC(=O)c1coc(-c2ccnc(NCC(F)(F)F)c2)n1 (stereo not shown) [I-525] | > 1000 nM | < 6.00 |
| O=C1CCC(N2Cc3cc(CNC(=O)NCCOCCOCCNCc4ccc(-n5cc(NC(=O)c6coc(-c7ccnc(NCC8CC8)c7)n6)c(C(F)F)n5)cc4)ccc3C2=O)C(=O)N1 (stereo not shown) [I-529] | 50 to 100 nM | 7.00 to 7.30 |
| Cn1c(=O)n(C2CCC(=O)NC2=O)c2cccc(CCCOCCNCc3ccc(-n4cc(NC(=O)c5coc(-c6ccnc(NCC7CC7)c6)n5)c(C(F)F)n4)cc3)c21 (stereo not shown) [I-530] | < 50 nM | > 7.30 |
| Cn1c(=O)n(C2CCC(=O)NC2=O)c2ccc(CCCOCCNCc3ccc(-n4cc(NC(=O)c5coc(-c6ccnc(NCC(F)(F)F)c6)n5)c(C(F)F)n4)cc3)cc21 (stereo not shown) [I-532] | < 50 nM | 6.00 to 6.30 |
| Cn1c(=O)n(C2CCC(=O)NC2=O)c2ccc(CCCOCCCNCc3ccc(-n4cc(NC(=O)c5coc(-c6ccnc(NCC(F)(F)F)c6)n5)c(C(F)F)n4)cc3)cc21 (stereo not shown) [I-534] | < 50 nM | < 6.00 |
| Cn1c(=O)n(C2CCC(=O)NC2=O)c2cccc(CCCOCCCNCc3ccc(-n4cc(NC(=O)c5coc(-c6ccnc(NCC(F)(F)F)c6)n5)c(C(F)F)n4)cc3)c21 (stereo not shown) [I-535] | < 50 nM | < 6.00 |
| Cn1c(=O)n(C2CCC(=O)NC2=O)c2cccc(CCCNCC3COC4C(CNCc5ccc(-n6cc(NC(=O)c7coc(-c8ccnc(NCC(F)(F)F)c8)n7)c(C(F)F)n6)cc5)COC34)c21 (stereo not shown) [I-536] | < 50 nM | > 7.30 |
| Cn1c(=O)n(C2CCC(=O)NC2=O)c2ccc(CCCNCC3COC4C(CNCc5ccc(-n6cc(NC(=O)c7coc(-c8ccnc(NCC9CC9)c8)n7)c(C(F)F)n6)cc5)COC34)cc21 (stereo not shown) [I-537] | < 50 nM | > 7.30 |
| Cn1c(=O)n(C2CCC(=O)NC2=O)c2ccc(CCCOCCOCCNCc3ccc(-n4cc(NC(=O)c5coc(-c6ccnc(NCC7CC7)c6)n5)c(C(F)F)n4)cc3F)cc21 (stereo not shown) [I-539] | 500 to 1000 nM | > 7.30 |
| Cn1c(=O)n(C2CCC(=O)NC2=O)c2ccc(CNCCCCCNCc3ccc(-n4cc(NC(=O)c5coc(-c6ccnc(NCC7CC7)c6)n5)c(C(F)F)n4)cc3)cc21 (stereo not shown) [I-542] | < 50 nM | > 7.30 |
| Cn1c(=O)n(C2CCC(=O)NC2=O)c2ccc(CNC(=O)COCCNCc3ccc(-n4cc(NC(=O)c5coc(-c6ccnc(NCC7CC7)c6)n5)c(C(F)F)n4)cc3)cc21 (stereo not shown) [I-543] | < 50 nM | > 7.30 |
